The record followed here is patent publication US9302999B2, “Substituted triazoles as herbicides” (E. I. DU PONT DE NEMOURS AND COMPANY, priority 2012, dated 2016).

For test [1], the system named is sandbur (southern sandbur, Cenchrus echinatus). The test can be described thus: Test F pre-/postemergence: sandbur. It is filed as in vivo. An excerpt: (§1) Seeds of plant species selected from corn (Zea mays), soybean (Glycine max), velvetleaf (Abutilon theophrasti), lambsquarters (Chenopodium album), poinsettia, wild (wild poinsettia, Euphorbia heterophylla), pigweed, palmer (palmer pigweed, Amaranthus palmeri), waterhemp (common waterhemp, Amaranthus rudis), surinam grass (Brachiaria decumbens), crabgrass, Brazil (Brazilian crabgrass, Digitaria horizontalis), panicum, fall (fall panicum Panicum dichotomiflorum), crabgrass, large (large crabgrass, Digitaria sanguinalis), foxtail, giant (giant foxtail, Setaria faberii), foxtail, green (green foxtail Setaria viridis), goosegrass (Eleusine indica), ragweed (common ragweed, Ambrosia elatior), barnyardgrass (Echinochloa crus-galli), sandbur (southern sandbur, Cenchrus echinatus), arrowleaf sida (Sida rhombifolia), ryegrass, Italian (Italian ryegrass, Lolium multiflorum), dayflower, VA (Virginia (VA) dayflower, Commelina virginica), field bindweed (Convolvulus arvensis), cocklebur (common cocklebur, Xanthium strumarium), morningglory (Ipomoea coccinea), nightshade (eastern black nightshade, Solanum ptycanthum), kochia (Kochia scoparia), nutsedge, yellow (yellow nutsedge, Cyperus esculentus), johnsongrass (Sorghum halepense), smartweed (ladysthumb smartweed, Polygonum persicaria), and beggarticks (hairy beggarticks, Bidens pilosa), were planted into a silt loam soil and treated preemergence with test chemicals formulated in a non-phytotoxic solvent mixture which included a surfactant. At the same time, plants selected from these crop and weed species and also pigweed (Amaranthus retroflexus), waterhemp_RES1 (ALS/Triazine resistant common waterhemp, Amaranthus rudis) and waterhemp_RES2 (ALS/HPPD resistant common waterhemp, Amaranthus rudis) were planted in pots containing a planting medium comprising spaghnum peat moss, vermiculite, wetting agent and starter nutrients treated with postemergence applications of some of the test chemicals formulated in the same manner. Plants ranged in height from 2 to 18 cm for postemergence treatments (1- to 4-leaf stage).
(§2) Treated plants and controls were maintained in a greenhouse for 14 to 21 days, after which time all species were compared to controls and visually evaluated. Plant response ratings, summarized in Table E, are based on a scale of 0 to 100 where 0 is no effect and 100 is complete control. A dash (-) response means no test result.

The test system of the next test is Barnyardgrass. In words: Test C postemergence: barnyardgrass. It is filed as in vivo, Echinochloa crus-galli. In a few lines:
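Seedlings are raised in pots of peat-based medium to 2–18 cm (1- to 4-leaf stage). The formulated compound is then applied postemergence. Plants stay in the greenhouse for 13 to 15 days and are rated visually against controls, where 0 means no effect and 100 complete control.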

Test [2] deals with cocklebur (common cocklebur, Xanthium strumarium). In words: Test F pre-/postemergence: cocklebur. It counts as in vivo. The conditions noted are these: Preemergence.
Source text: as §1, §2

The test system of a further test is soybean (Glycine max). The test can be described thus: Test F pre-/postemergence: soybean. It is filed as in vivo. An outline of the steps: (§3)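 Seeds were sown in silt loam soil and sprayed preemergence with test chemical in a non-phytotoxic solvent mixture containing surfactant; postemergence treatments went onto plants 2 to 18 cm tall (1- to 4-leaf stage) grown in peat moss/vermiculite medium. After 14 to 21 days in a greenhouse, injury was rated visually against controls, 0 (no effect) to 100 (complete control).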

Test [3] relates to crabgrass, large (large crabgrass, Digitaria sanguinalis). The test can be described thus: Test F pre-/postemergence: crabgrass, large. It counts as in vivo. The settings on record: Preemergence. In a few lines:
as §3

[4] abbreviates: Preemergence, 16 g ai/ha, scale 0 to 100 (0 no effect, 100 complete control).
The mark [5] stands for this setting: Preemergence, 31 g ai/ha, scale 0 to 100 (0 no effect, 100 complete control).
The mark [6] stands for this setting: Preemergence, 125 g ai/ha, scale 0 to 100.
Setting [7] is: Preemergence, 250 g ai/ha, scale 0 to 100.
The mark [8] stands for this setting: 31 g ai/ha, scale 0 to 100 (0 no effect, 100 complete control).
The mark [9] stands for this setting: 62 g ai/ha, scale 0 to 100 (0 no effect, 100 complete control).
[10] abbreviates: 16 g ai/ha, scale 0 to 100 (0 no effect, 100 complete control).
Where [11] appears, read: Postemergence, 4 g ai/ha, scale 0 to 100.
[12] abbreviates: Postemergence, 8 g ai/ha, scale 0 to 100.
The mark [13] stands for this setting: Postemergence, 16 g ai/ha, scale 0 to 100.
Where [14] appears, read: Postemergence, 31 g ai/ha, scale 0 to 100.
The mark [15] stands for this setting: Postemergence, 62 g ai/ha, scale 0 to 100.
Where [16] appears, read: Preemergence, 4 g ai/ha, scale 0 to 100, 0 no effect, 100 complete control.
The mark [17] stands for this setting: Preemergence, 8 g ai/ha, scale 0 to 100, 0 no effect, 100 complete control.
[18] abbreviates: 8 g ai/ha, scale 0 to 100, 0 no effect, 100 complete control.

Regarding `CCCc1nn(-c2ccc(F)cc2)nc1Cc1ccnc(C(F)(F)F)c1` [Compound 153], the “Plant response rating, Sandbur” value in test [1] (setting [4]) is reported as 5; in test [1] (setting [5]), 35; in test [1] (setting [6]), 95; in test [1] (setting [7]), 100. The “Plant response rating, Barnyardgrass” value with Barnyardgrass (setting [8]) is listed as 20; with Barnyardgrass (setting [9]), 35; in the test on Barnyardgrass (250 g ai/ha, scale 0 to 100), 75. Further, the “Plant response rating, Cocklebur” value in test [2] (setting [10]) came to 0; in test [2] (62 g ai/ha, scale 0 to 100), 0. Further, the “Plant response rating, Soybean” value in the test on soybean (Glycine max) (setting [4]) worked out at 0; in the test with soybean (Glycine max) (setting [5]), 0; with soybean (Glycine max) (setting [6]), 5; in the test on soybean (Glycine max) (setting [7]), 25. The “Plant response rating, Crabgrass, Large” value in test [3] (setting [10]) is 80; in test [3] (setting [8]), 95; in test [3] (62 g ai/ha, scale 0 to 100) it was 100; in test [3] (125 g ai/ha, scale 0 to 100), 100; in test [3] (250 g ai/ha, scale 0 to 100), 100.

Regarding `Cc1nn(-c2ccc(C(F)(F)F)c(F)c2)nc1Cc1ccnc(C(F)(F)F)c1` [Compound 162], the “Plant response rating, Sandbur” value in test [1] (setting [11]) is 10; in test [1] (setting [12]) it was 10; in test [1] (setting [13]), 15; in test [1] (setting [14]), 20; in test [1] (setting [15]), 20; in test [1] (setting [16]), 0. Also, the “Plant response rating, Sandbur” value came out at 0 in test [1] (setting [17]), 5 in test [1] (setting [4]) and 15 in test [1] (setting [5]). The “Plant response rating, Barnyardgrass” value in the test on Barnyardgrass (setting [8]) worked out at 20; with Barnyardgrass (setting [9]), 65; with Barnyardgrass (250 g ai/ha, scale 0 to 100), 95. Also, the “Plant response rating, Cocklebur” value in test [2] (4 g ai/ha, scale 0 to 100, 0 no effect, 100 complete control) came out at 0; in test [2] (setting [18]), 0; in test [2] (setting [8]) it was 0; in test [2] (62 g ai/ha, scale 0 to 100), 0. Also, the “Plant response rating, Soybean” value came to 20 with soybean (Glycine max) (setting [11]); 30 with soybean (Glycine max) (setting [12]); 30 in the test with soybean (Glycine max) (setting [13]); 45 in the test on soybean (Glycine max) (setting [14]); 55 in the test with soybean (Glycine max) (setting [15]); 0 with soybean (Glycine max) (setting [16]). For the same compound, the “Plant response rating, Soybean” value in the test on soybean (Glycine max) (setting [17]) is 0; in the test with soybean (Glycine max) (setting [4]), 0; in the test on soybean (Glycine max) (setting [5]) it was 25. The “Plant response rating, Crabgrass, Large” value in test [3] (setting [18]) came out at 0; in test [3] (setting [10]) it was 0; in test [3] (setting [8]), 95; in test [3] (62 g ai/ha, scale 0 to 100), 100.
